Reference: patent US8114406B2, “Peptides and their utility in modulation of behavior of cells expressing α3β1 integrins” (The United States of America as represented by the …, priority 1999, dated 2012)
Where two headings read alike, the source gives them in different places. One block for each molecule: values may come before it. Where a SMILES comes first, the peptide text is derived from it. Where no end group is shown, it is not given here.

How the values were obtained:
[1] = tested on: MDA-MB-435 breast carcinoma cells; assay: Inhibition of MDA-MB-435 cell adhesion to immobilized peptide 678 (microscopic adhesion assay); assay type: cell-based, human
Experimental: (§1) Adhesion assays of cells other than small cell lung carcinoma (SCLC)-Adhesion was measured on polystyrene or glass substrates coated with peptides or proteins as previously described (Guo et al., 1992). Peptides dissolved in PBS at 0.4 to 50 μM were incubated in polystyrene microliter plate wells overnight at 4° C. The wells were washed 3 times with distilled water. Adsorbed peptide was quantified using the BCA assay (Pierce Chemical) measuring absorbance at 570 and 630 nm as described by the supplier's protocol. The assay for adsorption was calibrated using purified peptide in solution as a standard. After blocking with 1% BSA in Dulbecco's PBS, adhesion assays were performed by adding cells suspended in DMEM (BAE cells) or medium 199 (human cells) containing 1 mg/ml BSA. Cell attachment and spreading was quantified microscopically.

HUVEC = HUVEC spreading on coated substrates; assay type: cell-based, human
Experimental: FIGS. 14A, 14B and 14C display α3β1 and αvβ3 integrin-mediated spreading of endothelial cells on thrombospondin-1. […] Results are expressed as percent of the response for untreated cells, mean±S.D., n=3.
as §1

[2] = tested on: MDA-MB-435 breast carcinoma cells
Experimental: MDA-MB-435 cell adhesion to microliter plate wells coated with 5 uM peptide 678 was determined in the presence of the indicated concentrations of soluble carboxamidomethyl-peptide 716 or peptide 716 covalently linked to FICOLL™ as previously described (Guo et al., 1997). After washing twice to remove unattached cells, adherent cells were quantified by detection of cellular hexosaminidase using p-nitrophenyl-N-acetylglucosaminide as substrate. Released p-nitrophenol was detected by absorbance at 405 nm. Results are mean+/−SD, n=3.
In this case, the adherent cells are quantified by detection of cellular hexosaminidase using p-nitrophenyl-N-acetylglucosaminidine as substrate. Released p-nitrophenol is detected by absorbance at 405 nm.

[3] = tested on: MDA-MB-435 breast carcinoma cells; assay: Direct adhesion of MDA-MB-435 cells to peptides adsorbed on polystyrene; assay type: cell-based, human; conditions: peptides adsorbed at 10 μM (FIG. 2)
Experimental: as §1

[4] = tested on: chick chorioallantoic membrane (CAM) angiogenesis; assay: Chick chorioallantoic membrane (CAM) angiogenesis assay; assay type: in vivo, chicken; conditions: relative to control gels, mean ± SD
Experimental: Fertilized Leghorn chicken eggs were obtained from Ramona Duck farm (Westminster, Calif.). At day 3 of development, the embryos were placed on 100 mm petri dishes. Assays were performed as previously described (Iruela-Arispe et al., 1999). […] Peptides were filtered on Centricon P100 prior to their analysis on the CAM assays to eliminate traces of endotoxin. Pellets were applied to the outer ⅓ of the CAM, and the assay was performed for 24 h. Detection of capillary growth was done by injection of FITC-dextran in the bloodstream and observation of the pellets under a fluorescent inverted microscope. Positive controls (growth factors and vehicle), as well as negative controls (vehicle alone) were placed in the same CAM and used as reference of 100% stimulation or baseline inhibition (0%), and response to the peptides was determined according to these internal controls. Assays were performed in duplicate in each CAM and in four independent CAMs (total of 8 pellets).

N417 SCLC cells = assay: SCLC cell adhesion to extracellular matrix proteins, N417; assay type: cell-based, human
Experimental: (§2) For adhesion assays of SCLC, these cells were washed once with RPMI 1640 and centrifuged at 400×g for 3 min. The pellet was suspended in 2.5 mM EDTA in PBS, pH 7.4 and incubated for 10 min at 37° C. After trituration three times and centrifugation, the cells were resuspended in RPMI 1640 containing 0.1% BSA (Sigma Co. St Louis, Mo.).
(§3) Adhesion of SCLC cells to extracellular matrix proteins. Extracellular matrix proteins or peptides in Dulbecco's PBS were adsorbed onto polystyrene by incubating overnight at 4° C. […] The supernatant fluid was removed, and the dishes were incubated with Tris-gelatin (ICN) (50 mM Tris-HCl, 110 mM NaCl, 5 mM CaCl2, 0.1 mM phenylmethylsulfonyl fluoride, 0.2% gelatin and 0.02% NaN3, pH 7.8) or Dulbeccos PBS with 1% BSA, as indicated, for 30 min to minimize nonspecific adhesion. The disks were washed twice with cold PBS, pH 7.2 and overlayed with dissociated SCLC cells prepared as described above at a density of 2.5×10^5/cm^2.
(§4) For inhibition studies with SCLC cells, inhibitors or antibodies were added and incubated with SCLC cells at the indicated concentrations. After incubation for 60-90 min at 37° C., the disks were washed by dipping six times in PBS, pH 7.2, fixed with 1% glutaraldehyde in PBS, pH 7.2, and stained with Diff-Quik. Attached cells were counted microscopically.

H345 SCLC cells = assay: SCLC cell adhesion to extracellular matrix proteins, H345; assay type: cell-based, human
Experimental: as §2, §3, §4

H69 SCLC cells = assay: SCLC cell adhesion to extracellular matrix proteins, H69; assay type: cell-based, human
Experimental: as §2, §3, §4

[5] = Table 3, 5 μM peptide 678, read-out: IC50 (μM), inhibition of MDA-MB-435 cell adhesion to immobilized peptide 678
[6] = microscopic adhesion assay, polystyrene coated with 5 μM peptide 678, peptides in solution, read-out: Inhibition of peptide 678 (IC50)
[7] = substrate coated at 6.2 μg/ml, mean ± S.D., n = 3

Experimental for BAE cells: Direct adhesion of BAE cells to the adsorbed peptides or uncoated substrate (control) are presented as mean±SD, n=3. […] Two flasks of BAE cells were grown to confluence. One flask was harvested and replated in fresh medium at 25% confluency. Fresh medium was added at the same time to the second flask. After 16 h, cells from both flasks were dissociated using EDTA and adhesion was measured on substrates coated with 40 μg/ml TSP1, 10 μg/ml vitronectin, 20 μg/ml plasma fibronectin, or 5 μg/ml type I collagen. The percent spread cells after 60 min is presented as mean±SD, n=3 for a representative experiment.
Results are presented as mean±SD, n=3. […] The percent spread cells was determined at 60 min.

- IC50 [1, 5]: 5 µM
- IC50 [1, 6]: 5 µM
Molecule: AQGVLQNVRFVF [Peptide 697]

- IC50 [2]: ~100 µM
Molecule: Ac-QGVLQNVRF-OH [Peptide 704]

- IC50 [2]: 12 µM
- IC50 [1, 5]: 1.8 µM
- IC50 [1, 6]: 1.8 µM
Molecule: FAGVLQNVRFVF [Peptide 696]
- Angiogenic response (% inhibition) ([4]; 5 μM peptide): 5 ± 2%
- Angiogenic response (% inhibition) ([4]; 10 μM peptide): 9 ± 3%
- Angiogenic response (% inhibition) ([4]; 20 μM peptide): 12 ± 4%

- IC50 [1, 5]: 5 µM
- IC50 [1, 6]: 5 µM
Molecule: FQGVAQNVRFVF [Peptide 695]

- IC50 [1, 5]: 3 µM
- IC50 [1, 6]: 3 µM
Molecule: FQGVLANVRFVF [Peptide 687]

- IC50 [1, 6]: 3 µM
Molecule: FQGVLNNVRFVF [Peptide 698]

- IC50 [1, 5]: > 300 µM
- IC50 [1, 6]: > 300 µM
Molecule: FQGVLQNARFVF [Peptide 691]

- IC50 [1, 5]: 54 µM
- IC50 [1, 6]: 54 µM
Molecule: FQGVLQNVHFVF [Peptide 694]

- IC50 [2]: 25 µM
- IC50 [1, 5]: 6 µM
- IC50 [1, 6]: 6 µM
Molecule: FQGVLQNVKFVF [Peptide 702]

- IC50 [2]: 300 µM
- IC50 [1, 5]: > 100 µM
- IC50 [1, 6]: > 100 µM
Molecule: FQGVLQNVQFVF [Peptide 703]

- IC50 [1, 5]: 18 µM
- IC50 [1, 6]: 18 µM
Molecule: FQGVLQNVRAVF [Peptide 692]

- IC50 [1, 5]: 27 µM
- IC50 [1, 6]: 27 µM
Molecule: FQGVLQNVRFVA [Peptide 693]

- IC50 [1, 6]: 300 µM
Molecule: LQNVRFVF [Peptide 684]

- IC50 [1, 6]: > 300 µM
Molecule: QGVLQNVR [Peptide 683]

- IC50 [1, 6]: 24 µM
Molecule: QGVLQNVRFVF [Peptide 685]

- IC50 [1, 6]: > 300 µM
Molecule: TPGQVRTLWHDP [Peptide 701]

- IC50 [1, 6]: > 100 µM
Molecule: VLQNVRFVF [Peptide 688]

More lines, now with the values behind:

Molecule: CC(C)C[C@H](NC(=O)[C@H](CCCNC(=N)N)NC(=O)[C@H](CC(C)C)NC(=O)[C@H](CC(N)=O)NC(=O)[C@H](CCCNC(=N)N)NC(=O)[C@@H](NC(=O)[C@H](CS)NC(=O)CNC(=O)[C@H](CCCNC(=N)N)NC(=O)[C@H](Cc1ccccc1)NC(=O)[C@H](CO)NC(=O)[C@H](C)NC(=O)[C@H](CCCNC(=N)N)NC(=O)[C@H](CO)NC(=O)[C@H](CO)NC(=O)[C@H](CC(C)C)NC(=O)[C@H](CS)NC(=O)[C@H](CC(N)=O)NC(=O)[C@H](CCC(N)=O)NC(=O)[C@@H](N)CCCCN)C(C)C)C(=O)N[C@@H](CO)C(=O)N[C@@H](CCCNC(=N)N)C(=O)O [Peptide 675, reference compound] (H-KQNCLSSRASFRGCVRNLRLSR-OH; N-terminus and C-terminus assumed)
- IC50 ([1]; read-out: IC50, inhibition of adhesion to either peptide or TSP1, tested in solution, data not shown): 700 µM

Molecule: CN(Cc1nc2ccccc2[nH]1)C(=O)c1ccc2c(c1)CN(C)C(=O)[C@H](CC(=O)O)N2 [SB223245, reference compound]
- inhibition of HUVEC spreading on TSP1 (HUVEC): did not significantly inhibit
- inhibition of HUVEC spreading on vitronectin (HUVEC): completely inhibited
- inhibition of BAE cell spreading on TSP1 (BAE cells; single agent): partially inhibited

Molecule: Ac-LQNVRF-NH2 [Peptide 681, ac-LQNVRF-am]
- IC50 [1, 6]: 500 µM

Molecule: ELTGAARKGSGRRLVKGPD [Hepl, focal adhesion disrupting peptide from the amino terminal domain of TSP1]
- promotion of MDA-MB-435 cell adhesion [3]: did not promote

Molecule: FQGVLQNVRF [Peptide 682]
- IC50 [1, 6]: 6 µM

Molecule: GRGDSP [reference compound]
- spreading response on TSP1 resistant to the peptide (BAE cells; 300 μM GRGDSP (FIG. 14A)): Approximately 20%
- inhibition of BAE cell spreading on TSP1, GRGDSP combined with the α3β1 binding peptide (BAE cells; combination with peptide 678): completely inhibited

Molecule: KRFKQDGGWSHWSPWSS [Peptide 246]
- promotion of MDA-MB-435 cell adhesion [3]: promoted adhesion

Molecule: KRFYVVMWKK [Peptide 4N1K]
- promotion of MDA-MB-435 cell adhesion [3]: promoted adhesion

Molecule: NGVQYRNC [Peptide 500]
- promotion of MDA-MB-435 cell adhesion [3]: weaker adhesive activities

Molecule: SPWSSCSVTCGDGVITRIR [Mal-II]
- promotion of MDA-MB-435 cell adhesion [3]: weaker adhesive activities

Molecule: fibronectin
- SCLC cell adhesion (N417 SCLC cells; 6.2 μg/ml): 19 ± 2 cells/mm2
- SCLC cell adhesion (N417 SCLC cells; 12.5 μg/ml): 48 ± 4 cells/mm2
- SCLC cell adhesion (N417 SCLC cells; 25 μg/ml): 86 ± 6 cells/mm2
- SCLC cell adhesion (N417 SCLC cells; 50 μg/ml): 78 ± 2 cells/mm2
- SCLC cell adhesion (H345 SCLC cells; 6.2 μg/ml): 0 cells/mm2
- SCLC cell adhesion (H345 SCLC cells; 12.5 μg/ml): 6 ± 2 cells/mm2
- SCLC cell adhesion (H345 SCLC cells; 25 μg/ml): 25 ± 5 cells/mm2
- SCLC cell adhesion (H345 SCLC cells; 50 μg/ml): 17 ± 5 cells/mm2
- SCLC cell adhesion (H69 SCLC cells; 12.5 μg/ml): 5 ± 1 cells/mm2
- SCLC cell adhesion (H69 SCLC cells; 25 μg/ml): 13 ± 3 cells/mm2
- SCLC cell adhesion (H69 SCLC cells; 50 μg/ml): 22 ± 7 cells/mm2
- SCLC cell adhesion (H69 SCLC cells; [7]): 1 ± 1 cells/mm2

Molecule: laminin: murine laminin-1 purified from the EHS tumor
- SCLC cell adhesion (N417 SCLC cells; 6.2 μg/ml): 5 ± 1 cells/mm2
- SCLC cell adhesion (N417 SCLC cells; 12.5 μg/ml): 78 ± 3 cells/mm2
- SCLC cell adhesion (N417 SCLC cells; 25 μg/ml): 151 ± 6 cells/mm2
- SCLC cell adhesion (N417 SCLC cells; 50 μg/ml): 160 ± 3 cells/mm2
- SCLC cell adhesion (H345 SCLC cells; 6.2 μg/ml): 6 ± 2 cells/mm2
- SCLC cell adhesion (H345 SCLC cells; 12.5 μg/ml): 8 ± 1 cells/mm2
- SCLC cell adhesion (H345 SCLC cells; 25 μg/ml): 151 ± 31 cells/mm2
- SCLC cell adhesion (H345 SCLC cells; 50 μg/ml): 148 ± 9 cells/mm2
- SCLC cell adhesion (H69 SCLC cells; 12.5 μg/ml): 16 ± 1 cells/mm2
- SCLC cell adhesion (H69 SCLC cells; 25 μg/ml): 82 ± 8 cells/mm2
- SCLC cell adhesion (H69 SCLC cells; 50 μg/ml): 108 ± 11 cells/mm2
- SCLC cell adhesion (H69 SCLC cells; [7]): 1 ± 1 cells/mm2

Molecule: peptide 716 conjugated to FICOLL: peptide 716 covalently linked to FICOLL (polysucrose) (FQGVLQNVRFVF; not fully specified (N-terminus); also: number of peptides per FICOLL polymer not given here)
- inhibition of adhesion of MDA-MB-435 cells to peptide 678, compared to free peptide 716 ([2]; hexosaminidase detection): enhanced

B1: vitronectin: human vitronectin from Sigma (protein, UniProt P04004 20-478, looked up)
Vitronectin: DQESCKGRCTEGFNVDKKCQCDELCSYYQSCCTDYTAECKPQVTRGDVFTMPEDEYTVYDDGEEKNNATVHEQVGGPSLTSDLQAQSKGNPEQTPVLKPEEEAPAPEVGASKPEGIDSRPETLHPGRPQPPAEEELCSGKPFDAFTDLKNGSLFAFRGQYCYELDEKAVRPGYPKLIRDVWGIEGPIDAAFTRINCQGKTYLFKGSQYWRFEDGVLDPDYPRNISDGFDGIPDNVDAALALPAHSYSGRERVYFFKGKQYWEYQFQHQPSQEECEGSSLSAVFEHFAMMQRDSWEDIFELLFWGRTSAGTRQPQFISRDWHGVPGQVDAAMAGRIYISGMAPRPSLAKKQRFRHRNRKGYRSQRGHSRGRNQNSRRPSRATWLSLFSSEESNLGANNYDDYRMDWLVPATCEPIQSVFFFSGDKYYRVNLRTRRVDTVDPPYPRSIAQYWLGCPAPGHL
- percent spread BAE cells on substrate (BAE cells; cells harvested from a confluent monolayer): approximately 60%
